This is an account of results in patent US8288379B2, “Thia-triaza-cyclopentazulenes” (Boehringer Ingelheim International GmbH, priority 2009, dated 2012).

Molecules are shown by their SMILES.

Test [1] concerns PC-3 cells. As to the kind of experiment: Inhibition of proliferation: CyQuant PC-3. Type of test: cell-based. As to conditions: 72 h; PC-3 human prostate carcinoma cells, incubated with compounds for 3 days, CyQuant NF DNA dye. The gist of the method: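 PC-3 proliferation read by CyQuant NF: DNA-binding dye with membrane permeabilization reagent added after medium removal, 30-60 min incubation, fluorescence at Ex 485/Em 530 nm. Proliferation judged from cell counts of drug-treated versus untreated controls.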

Test [2] addresses T1, FRAP1 (mTOR) kinase (Homo sapiens, UniProt P42345).
T1 construct: purchased Invitrogen PV4753
Description: Inhibition of mTOR-induced p-4E-BP1 phosphorylation (TR-FRET mTOR Activity Kit; Invitrogen). The format is biochemical. Conditions: 400 nM GFP-4E-BP1 substrate, ~150 ng/mL mTOR, one hour at room temperature. The gist of the method:
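LanthaScreen TR-FRET: mTOR with GFP-4E-BP1 substrate in HEPES pH 7.5 buffer with 10 mM MnCl2, compound preincubated 30 min at RT, then ATP added and reacted 1 h at 20-25 °C. Stopped with EDTA plus Tb-anti-p4E-BP1 (pThr46), 1 h; GFP/Tb emission ratio over a 16-point curve, sigmoidal fit for IC50.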
(In general: Time-resolved FRET reads energy transfer from a long-lived donor to a nearby acceptor.)

T1 sequence (P42345 1360-2549 limits assumed): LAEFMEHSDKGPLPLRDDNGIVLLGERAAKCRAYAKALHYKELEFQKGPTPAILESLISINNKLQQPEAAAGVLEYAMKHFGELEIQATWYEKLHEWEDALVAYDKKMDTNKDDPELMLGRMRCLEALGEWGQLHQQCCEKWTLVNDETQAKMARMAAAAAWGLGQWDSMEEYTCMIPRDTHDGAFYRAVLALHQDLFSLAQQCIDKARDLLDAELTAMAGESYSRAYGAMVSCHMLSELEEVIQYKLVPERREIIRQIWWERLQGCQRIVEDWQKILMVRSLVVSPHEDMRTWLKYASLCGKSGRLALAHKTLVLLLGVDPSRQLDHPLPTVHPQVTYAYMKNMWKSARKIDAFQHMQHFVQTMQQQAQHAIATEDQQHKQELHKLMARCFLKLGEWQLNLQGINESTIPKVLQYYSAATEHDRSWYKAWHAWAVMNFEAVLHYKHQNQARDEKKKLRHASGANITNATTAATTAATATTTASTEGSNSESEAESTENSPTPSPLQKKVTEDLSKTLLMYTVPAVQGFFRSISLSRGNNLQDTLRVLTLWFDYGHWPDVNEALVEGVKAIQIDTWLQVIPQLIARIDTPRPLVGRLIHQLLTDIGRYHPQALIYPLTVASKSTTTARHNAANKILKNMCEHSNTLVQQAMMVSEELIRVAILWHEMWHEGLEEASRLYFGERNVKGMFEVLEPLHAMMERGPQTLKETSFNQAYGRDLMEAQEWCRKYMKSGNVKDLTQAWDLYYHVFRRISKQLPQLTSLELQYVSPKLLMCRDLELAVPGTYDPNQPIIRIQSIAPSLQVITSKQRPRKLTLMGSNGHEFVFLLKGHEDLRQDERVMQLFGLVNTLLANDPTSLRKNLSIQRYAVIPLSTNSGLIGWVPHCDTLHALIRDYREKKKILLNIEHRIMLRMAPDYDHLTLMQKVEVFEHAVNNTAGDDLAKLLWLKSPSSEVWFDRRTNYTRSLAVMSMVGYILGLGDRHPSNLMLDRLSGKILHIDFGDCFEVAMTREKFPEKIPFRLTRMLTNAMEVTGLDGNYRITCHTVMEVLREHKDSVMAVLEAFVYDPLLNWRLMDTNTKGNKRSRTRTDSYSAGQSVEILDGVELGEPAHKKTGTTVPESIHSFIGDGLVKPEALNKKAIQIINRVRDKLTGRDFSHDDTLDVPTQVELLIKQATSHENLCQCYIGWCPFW

The term EC50 denotes the concentration at which the effect is half-maximal. By IC50 is commonly meant the point on the concentration scale where inhibition reaches its midpoint. High values mean a need for much substance, low ones inhibition by little substance. With `CC(=O)Nc1nc2c(s1)-c1c(c(-c3ccc(N)nc3)nn1C(C)C)CCC2` [Example B-66, N-[3-(6-Amino-pyridin-3-yl)-1-isopropyl-1,4,5,6-tetrahydro-9-thia-1,2,7-triaza-cyclopenta[e]azulen-8-yl]-acetamide], in test [1], the EC50 was 90 nM. For the same compound, inhibition in test [2] was half-maximal at 12 nM (IC50).
For `CN(C)CCCC(=O)Nc1nc2c(s1)-c1c(c(-c3ccc(N)nc3)nn1-c1ccccc1F)CCC2` [Example E-16, N-[3-(6-Amino-pyridin-3-yl)-1-(2-fluoro-phenyl)-1,4,5,6-tetrahydro-9-thia-1,2,7-triaza-cyclopenta[e]azulen-8-yl]-4-dimethylamino-butyramide] the same measures were 32 nM and 13 nM.
For the compound `CC(=O)Nc1nc2c(s1)-c1c(c(-c3c[nH]cn3)nn1CC(C)C)CCC2` [Example B-113], the EC50 in test [1] is 29 nM. The IC50 in test [2] is 9 nM.
Taken in the same sequence, the figures for `CCNc1ccc(-c2nn(-c3ccccc3Cl)c3c2CCCc2nc(NC(C)=O)sc2-3)cn1` [Example B-75] were 113 nM and 49 nM.
Take `CC(=O)Nc1nc2c(s1)-c1c(c(-c3ccc(C)nc3)nn1-c1ccncc1C)CCC2` [Example B-90]: in test [1], the EC50 turned out to be 422 nM. In addition, half-maximal inhibition in test [2] (IC50) required 118 nM.
Turning to `COCCC(=O)Nc1nc2c(s1)-c1c(c(-c3ccc(N)nc3)nn1-c1ccccc1F)CCC2` [Example E-15, N-[3-(6-Amino-pyridin-3-yl)-1-(2-fluoro-phenyl)-1,4,5,6-tetrahydro-9-thia-1,2,7-triaza-cyclopenta[e]azulen-8-yl]-3-methoxy-propionamide], the EC50 in test [1] stood at 138 nM. The concentration for half-maximal inhibition (IC50) in test [2] was 47 nM.
Consider `CN(C)C(=O)Nc1nc2c(s1)-c1c(c(-c3ccc(N)nc3)nn1-c1ccccc1)CCC2` [Example B-96, 3-[3-(6-Amino-pyridin-3-yl)-1-phenyl-1,4,5,6-tetrahydro-9-thia-1,2,7-triaza-cyclopenta[e]azulen-8-yl]-1,1-dimethyl-urea], for which, in test [1], the EC50 was 289 nM. This compound gave an IC50 in test [2] of 67 nM.
For `CNc1ccc(-c2nn(-c3ccccc3Cl)c3c2CCCc2nc(NC(C)=O)sc2-3)cn1` [Example B-28, N-[1-(2-Chloro-phenyl)-3-(6-methylamino-pyridin-3-yl)-1,4,5,6-tetrahydro-9-thia-1,2,7-triaza-cyclopenta[e]azulen-8-yl]-acetamide] the same measures were 70 nM and 50 nM.
For `COCCn1nc(-c2ccc(N)nc2)c2c1-c1sc(NC(C)=O)nc1CCC2` [Example B-132, N-[3-(6-Amino-pyridin-3-yl)-1-(2-methoxy-ethyl)-1,4,5,6-tetrahydro-9-thia-1,2,7-triaza-cyclopenta[e]azulen-8-yl]-acetamide] the same measures were 326 nM and 52 nM.
For `CNc1ccc(-c2nn(-c3cccc(OC)c3)c3c2CCCc2nc(NC(C)=O)sc2-3)cn1` [Example B-89], the EC50 in test [1] worked out at 72 nM. In test [2], this compound had an IC50 of 57 nM.
As to `CCNc1ccc(-c2nn(-c3ccccc3C)c3c2CCCc2nc(NC(=O)CCOC)sc2-3)cn1` [Example B-71], the EC50 in test [1] was 318 nM. The compound further gave an IC50 in test [2] of 138 nM.
In the case of `CNc1ccc(-c2nn(CCN3CCOCC3)c3c2CCCc2nc(NC(C)=O)sc2-3)cn1` [Example B-82, N-[3-(6-Methylamino-pyridin-3-yl)-1-(2-morpholin-4-yl-ethyl)-1,4,5,6-tetrahydro-9-thia-1,2,7-triaza-cyclopenta[e]azulen-8-yl]-acetamide], the half-maximal effective concentration (EC50) in test [1] is 49 nM. This compound gave a 50% inhibitory concentration (IC50) in test [2] of 33 nM.
For the compound `CCCn1nc(-c2ccc(N)nc2)c2c1-c1sc(NC(=O)N(C)C)nc1CCC2` [Example B-33], in test [1], the EC50 amounted to 310 nM. Besides, in test [2], the IC50 was determined as 116 nM.
Take `CNc1ccc(-c2nn(-c3ccccc3C)c3c2CCCc2nc(NC(=O)CCc4ncc[nH]4)sc2-3)cn1` [Example B-109]: the EC50 in test [1] is 162 nM. Besides, in test [2], half-maximal inhibition (IC50) required 49 nM.
Taken in the same sequence, the figures for `CNc1ccc(-c2nn(-c3ccccc3C)c3c2CCCc2nc(NC(=O)CCC(=O)N(C)C)sc2-3)cn1` [Example B-108] were 106 nM and 102 nM.
Take `CC(=O)Nc1nc2c(s1)-c1c(c(-c3c[nH]cn3)nn1-c1ccccc1F)CCC2` [Example B-111, N-[1-(2-Fluoro-phenyl)-3-(1H-imidazol-4-yl)-1,4,5,6-tetrahydro-9-thia-1,2,7-triaza-cyclopenta[e]azulen-8-yl]-acetamide]: the concentration for a half-maximal effect (EC50) in test [1] is 38 nM. In test [2], this compound had a half-inhibitory concentration (IC50) of 4 nM.
Regarding `CNc1ccc(-c2nn(-c3ccccc3C)c3c2CCCc2nc(NC(=O)N(C)C)sc2-3)cn1` [Example B-46], in test [1], the EC50 amounted to 447 nM. The IC50 in test [2] is 1200 nM.
`CCNc1ccc(-c2nn(C3CCCOC3)c3c2CCCc2nc(NC(C)=O)sc2-3)cn1` (stereo not drawn) [Example B-60]: the EC50 in test [1] was 170 nM. The compound also registered an IC50 in test [2] of 109 nM.
